From patent publication US10682371B2, “Small molecule conjugates specifically activated in tumor microenvironment for targeting and use thereof” (priority 2014, dated 2020)
Entries after “also recorded” stand apart in the source; their conditions may differ.

Experiments:
[1] = Maximum tolerated dose (MTD) / acute toxicity by single intravenous injection; details: female, BALB/C, mouse, in vivo, iv
MDA-MB231 tumor tissue = assay: Activation efficiency by MDA-MB231 tumor tissue (HPLC); type: biochemical
Procedure: At 37 °C, sample compounds were added into 100 μg acidized tumor tissue homogenates in a concentration of 1 mg/ml.
In the experiments, at 37 °C, compounds were added into proteases in 100 μg acidized tumor tissue homogenates in a concentration of 1 mg/ml. […] Meanwhile certain compounds produced in the screening were compared and their activation efficiency in same tissue was analyzed.

[2] = system: tumor-derived immunosuppressive T cells (T reg: CD4+, CD25+, Foxp3+); CD8 T cells; assay: Immunological stimulation test in mice receiving tumor treatment (T reg, CD8 T cells); type: in vivo
From the text: We further studied the immunological stimulation property of Legutaxel. […] On the contrary, the index for tumor-derived immunosuppressive T cells in treatment group by Legutaxel decreased due to targeted chemotherapy (see panels in FIGS. 3A and 3B).

Mice = assay: Toxicity of Legutaxel injected at tail vein weekly for 3 times, observed over 21 days; type: in vivo
Procedure: Mice were injected with Legutaxel at tail vein weekly for 3 times. […] Therefore, Legutaxel's dose could at least reach 160 mg/kg/day during treatment.

[3] = system: Human prostate cancer PC-3 cells; assay: Tumor treatment in nude mice, PC-3 model (Example 51); type: in vivo
Procedure: 1) Human prostate cancer PC-3 cells were purchased from American type culture collection (ATCC) and identified according the specification provided by ATCC. Cells were cultivated in DMEM culture solution containing 10% fetal bovine serum at 37° C. and 5% CO2. The cells were passaged for every three days and cells within the 15th passage were used.
2) Production of tumor. 5×10^6PC-3 cells were subcutaneously injected to the back of the nude mice. Mice were randomly grouped after the tumor reached at least 100 mm^3. Then treatment began and the day on which the treatment began was day 1.
According to the clinical application of D1, D2, D3 and D4, drugs were intravenously injected (IV). […]. The control group was administered by physiological saline. Drugs were administered once weekly for four weeks.

asparagine endopeptidase = target: T1, asparagine endopeptidase (Homo sapiens, UniProt Q99538)
T1 sequence (Q99538 26-323 limits assumed): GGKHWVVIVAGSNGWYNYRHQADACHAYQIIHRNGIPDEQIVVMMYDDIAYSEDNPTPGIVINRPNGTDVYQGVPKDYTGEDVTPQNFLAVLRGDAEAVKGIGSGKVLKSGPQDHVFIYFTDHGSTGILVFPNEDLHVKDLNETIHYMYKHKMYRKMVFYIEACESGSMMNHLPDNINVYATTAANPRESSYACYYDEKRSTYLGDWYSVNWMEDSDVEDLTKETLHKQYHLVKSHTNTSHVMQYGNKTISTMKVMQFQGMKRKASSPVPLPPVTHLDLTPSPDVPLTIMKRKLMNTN
Procedure: Reduction of reactant and increase of product were detected by HPLC, thereby comparing the activation efficiency of these compounds.
When R1 is 2-(2-Methoxyethoxy)Acetyl, and R3 is Ala, activation study and efficacy study were carried out by using compounds having different cleavable linker. The study methods are identical to those in Examples 10, 11 and 12. The in vitro activation efficiency was tested by asparagine endopeptidase and the tumor inhibition rate was tested by using human breast cancer MDA-MB231 model.

[4] = Table 48, nude mice, PC-3, IV once weekly for four weeks, D1-D4 25 mg/kg, Docetaxel […], Day 10
[5] = Table 48, nude mice, PC-3, IV once weekly for four weeks, D1-D4 25 mg/kg, Docetaxel […], Day 24

## COCCOCCOCCOCCOCCOCC(=O)N[C@H](C)C(=O)N[C@H](C)C(=O)N[C@H](CC(N)=O)C(=O)Nc1ccc(COC(=O)N2[C@H]3[C@@H]2CN2C4=C(C(=O)C(N)=C(C)C4=O)[C@H](COC(N)=O)[C@]32OC)cc1 [Compound E2]
[1]
  MTD at 17 days: ~90 mg/kg

## COCCOCC(=O)NCCCC[C@H](NC(=O)COCCOC)C(=O)N[C@H](C)C(=O)N[C@H](C)C(=O)N[C@H](CC(N)=O)C(=O)Nc1ccc(COC(=O)OC(C(=O)OC2C[C@@]3(O)[C@@H](OC(=O)c4ccccc4)[C@H]4[C@](C)(C(=O)[C@H](O)C(=C2C)C3(C)C)[C@@H](O)CC2OC[C@]24OC(C)=O)[C@@H](NC(=O)OC(C)(C)C)c2ccccc2)cc1 (stereo partly drawn) [Compound B1]
MDA-MB231 tumor tissue; Table 35, water-soluble Docetaxel series and controls
  activation efficiency (%): 93.4%

## COCCOCC(=O)N[C@H](C)C(=O)N[C@H](C)C(=O)N[C@H](CC(N)=O)C(=O)Nc1ccc(COC(=O)OC(C(=O)OC2C[C@@]3(O)C(OC(=O)c4ccccc4)[C@@H]4C5(OC(C)=O)COC5C[C@H](O)[C@@]4(C)C(=O)[C@H](OC(C)=O)C(=C2C)C3(C)C)[C@@H](NC(=O)c2ccccc2)c2ccccc2)cc1 (stereo in doubt) [S1′, 2-(2-methoxyethoxy) acetylamino-L-Ala-L-Ala-L-Asn-p-amino-benzyl-paclitaxel]
[2]; lung cancer treatment model
  Toxic CD8 T cells permeated from the tumor tissue: more toxic CD8 T cells
[2]; mice receiving tumor treatment
  Index for tumor-derived immunosuppressive T cells (T reg: CD4+, CD25+, Foxp3+): decreased
Mice; tail vein weekly for 3 times
  Dose that can be reached during treatment: ≥ 160 mg/kg/day
Mice; tail vein weekly for 3 times, 140, 150 and 160 mg/kg/day, observed over 21 days
  Death in toxicity experiments: no death were observed

## COCCOCC(=O)N[C@H](C)C(=O)N[C@H](C)C(=O)N[C@H](CC(N)=O)C(=O)Nc1ccc(COC(=O)N2[C@@H]3CN4C5=C(C(=O)C(N)=C(C)C5=O)[C@H](COC(N)=O)[C@]4(OC)[C@@H]32)cc1 [Compound E1, 2-(2-methoxyethoxy) acetyl-L-Ala-L-Ala-L-Asn-4-amino benzyl mitomycin]
[1]
  MTD at 17 days: ~90 mg/kg

## COCCOCC(=O)N[C@H](C)C(=O)N[C@H](C)C(=O)N[C@H](CC(N)=O)C(=O)Nc1ccc(COC(=O)OC(C(=O)OC2C[C@@]3(O)[C@@H](OC(=O)c4ccccc4)[C@H]4[C@](C)(C(=O)[C@H](O)C(=C2C)C3(C)C)[C@@H](O)CC2OC[C@]24OC(C)=O)[C@@H](NC(=O)OC(C)(C)C)c2ccccc2)cc1 (stereo partly drawn) [Compound D1, 2-(2-methoxyethoxy) acetyl-L-Ala-L-Ala-L-Asn-4-amino benzyl-Docetaxel]
[3]; [4]
  Size of tumor (mm^3) Day 10: 86.45 ± 26.42 mm^3
  inhibitory rate on tumor Day 10: 75.0
[3]; [5]
  Size of tumor (mm^3) Day 24: 143.34 ± 44.42 mm^3
  inhibitory rate on tumor Day 24: 80.5
[3]; compared with Docetaxel group and control group
  Inhibition on tumor growth, in words: greatly improved
MDA-MB231 tumor tissue; Table 46, Docetaxel D series and controls
  activation efficiency (%): 91.5%

## 4-N—(N—(N—(N-(6-maleimido caproyl)-L-alanyl)-L-alanyl)-L-asparaginyl)-amino benzyl alcohol-MMAE-carbamate [Compound S6]
Asparagine endopeptidase
  Activation by asparagine endopeptidase, in words: cannot be activated; also recorded: not activated
Asparagine endopeptidase; different cleavable linkers of MMAE and Doxorubicin, in vitro activation by asparagine endopeptidase
  Cleaving efficiency: 25.6%
